No end group written: not given here.
How the values were obtained:
[1] = target: T1, HMGB1 (Homo sapiens, UniProt P09429); test: Surface plasmon resonance (BIAcore) analysis of binding to HMGB1
T1 sequence (P09429 1-215): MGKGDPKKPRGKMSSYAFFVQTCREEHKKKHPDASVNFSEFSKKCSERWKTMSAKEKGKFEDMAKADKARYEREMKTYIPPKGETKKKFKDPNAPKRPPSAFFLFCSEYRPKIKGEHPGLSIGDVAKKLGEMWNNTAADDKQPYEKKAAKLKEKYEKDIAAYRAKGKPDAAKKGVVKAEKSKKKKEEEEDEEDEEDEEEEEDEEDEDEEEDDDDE
Text: FIG. 2A-2B: 2A. Human haptoglobin has three phenotypes and contains α and β subunits. 2B. […] Data shown is representative of 3 separate experiments.
(§1) FIG. 6A-6C: 6A. Schematics of haptoglobin (Hp) β and Hp β peptide (SEQ ID NO:1). 6B. […] 6C. […] N=5.
Haptoglobin (Hp) β binds to HMGB1: Human haptoglobin has three phenotypes and contains α and β subunits.
(§2) Haptoglobin β peptide retains the activity to bind and inhibit HMGB1 toxicity. […] (See FIG. 6C).

[2] = system: HMGB1-induced TNF release in primary mouse macrophages; test: Inhibition of HMGB1-induced TNF release in primary mouse macrophages; format: cell-based; conditions: N=5, result in words
Text: as §1, §2

[3] = system: CLP-induced sepsis; test: Survival in cecal ligation and puncture (CLP)-induced sepsis; format: in vivo, mice
Text: (§3) Haptoglobin is a complex protein consisting of α and β subunits (Yueh S C et al. J Chromatography, 2007). […] Administration of haptoglobin β subunit protects against lethality in mice with CLP-induced sepsis (CLP survival=85% in haptoglobin β-treated versus 50% in vehicle-treated group; n=22 mice per group, P<0.05) and in experimental acetaminophen-induced liver injury (Survival in haptoglobin β treated group=80% versus 35% in vehicle control group, P<0.05, n=20 mice per group). Screening of a peptide library of the haptoglobin β identified a critical region ([…], residues #278-305 in the B subunit) that retains the ability to inhibit HMGB1-induced TNF release from cultured macrophages. Taken together, these findings reveal a novel mechanism for haptoglobin modulation of the inflammatory action of HMGB1, with significant implications for developing experimental strategies targeting HMGB 1-dependent inflammatory diseases.
N=16 mice/group. […] Recombinant haptoglobin β (10 or 100 μg/mouse) was given once a day for 3 days starting at 24 hours after CLP surgery (N=25 mice/group). (See FIG. 5A-5B).

[4] = system: HMGB1-induced TNF release in murine macrophage-like RAW 264.7 cells; test: Inhibition of HMGB1-induced TNF release in RAW 264.7 cells; format: cell-based
Protocol: FIG. 3A-3B: HMGB1 stimulated TNF release in murine macrophage-like RAW 264.7 cells. 3A. The addition of haptoglobin produced a dose-dependent attenuation of the HMGB1-induced TNF release (up to 90% inhibition at 100 μg/ml). 3B. […] N=3-5 experiments. *: P<0.05 vs. HMGB1 alone.

[5] = system: acetaminophen-induced liver injury; test: Survival in experimental acetaminophen-induced liver injury; format: in vivo; conditions: mice; vehicle control group 35%; n=20 per group; P<0.05
Text: as §3
Acetaminophen-induced liver injury: Administration of haptoglobin β subunit protects against lethality in mice with experimental acetaminophen-induced liver injury (survival in haptoglobin β treated group=80% versus 35% in vehicle control group, P<0.05, n=20 mice per group).

[6] = target: T2, Haptoglobin beta subunit (human) (human, UniProt P00738 162-406); test: surface plasmon resonance
T2 construct: also called haptoglobin β; Hp β
T2 sequence: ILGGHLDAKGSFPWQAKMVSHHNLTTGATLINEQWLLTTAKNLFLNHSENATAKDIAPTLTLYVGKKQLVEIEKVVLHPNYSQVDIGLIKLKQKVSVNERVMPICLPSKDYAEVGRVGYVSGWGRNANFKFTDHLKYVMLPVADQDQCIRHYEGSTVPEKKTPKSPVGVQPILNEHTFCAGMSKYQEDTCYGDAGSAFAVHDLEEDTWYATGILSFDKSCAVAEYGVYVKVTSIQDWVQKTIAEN

With “GYVSGWGRNANFKFTDHLKYVMLPVAD [Hpβ peptide]” the Kd ([1]; BIAcore analysis) was about 17000 nM and the “inhibition of HMGB1-induced TNF release” value [2] was “dose-dependently inhibited”.

With “haptoglobin β: Haptoglobin beta subunit (human), SEQ ID NO:3; recombinant” the “rescue from death after CLP” value ([3]; haptoglobin KO mice, doses as low as 100 μg per animal per day, once a day for 3 days starting 24 hours after CLP, N=25 mice/group) was “rescued from death”, the CLP survival ([3]; mice with CLP-induced sepsis, vehicle-treated group 50%, n=22 per group, P<0.05) was 85% and the “likelihood of survival vs vehicle-treated control after CLP” value ([3]; wild type mice, 200 μg/mouse injected IP, N=16 mice/group, P<0.05) was “twice as likely to survive”. For the same molecule, the “inhibition of HMGB1-induced TNF release” value ([4]; result in words) was “as effective as haptoglobin”, the “Survival in acetaminophen-induced liver injury” value [5] was 80% and the Kd ([1]; surface plasmon resonance, representative of 3 separate experiments) was 29 nM.

B1: HMGB1 (ligand)
chain: MGKGDPKKPRGKMSSYAFFVQTCREEHKKKHPDASVNFSEFSKKCSERWKTMSAKEKGKFEDMAKADKARYEREMKTYIPPKGETKKKFKDPNAPKRPPSAFFLFCSEYRPKIKGEHPGLSIGDVAKKLGEMWNNTAADDKQPYEKKAAKLKEKYEKDIAAYRAKGKPDAAKKGVVKAEKSKKKKEEEEDEEDEEDEEEEEDEEDEDEEEDDDDE
notes: also called extracellular HMGB1
Molecule B1 has a Kd [6] of 29 nM.

B2: haptoglobin: full-length haptoglobin, acute phase protein with α and β subunits; mature human sequence SEQ ID NO:2 (protein, listed as Homo sapiens)
chain: VDSGNDVTDIADDGCPKPPEIAHGYVEHSVRYQCKNYYKLRTEGDGVYTLNDKKQWINKAVGDKLPECEADDGCPKPPEIAHGYVEHSVRYQCKNYYKLRTEGDGVYTLNNEKQWINKAVGDKLPECEAVCGKPKNPANPVQRILGGHLDAKGSFPWQAKMVSHHNLTTGATLINEQWLLTTAKNLFLNHSENATAKDIAPTLTLYVGKKQLVEIEKVVLHPNYSQVDIGLIKLKQKVSVNERVMPICLPSKDYAEVGRVGYVSGWGRNANFKFTDHLKYVMLPVADQDQCIRHYEGSTVPEKKTPKSPVGVQPILNEHTFCAGMSKYQEDTCYGDAGSAFAVHDLEEDTWYATGILSFDKSCAVAEYGVYVKVTSIQDWVQKTIAEN
With B2 the “protection in intra-abdominal sepsis (CLP)” value ([3]; wild type and haptoglobin-gene deficient animals, result in words) was “confers significant protection” and the “inhibition of HMGB1-induced TNF release” value ([4]; at 100 μg/ml, dose-dependent) was “up to 90%”.

Source: patent publication US20180344808A1, “HAPTOGLOBIN DERIVATIVE FOR TREATMENT OF SEPSIS AND ACETAMINOPHEN-INDUCED LIVER DAMAGE” (THE FEINSTEIN INSTITUTE FOR MEDICAL RESEARCH, priority 2017, published 2018)
